# Data reported in ChEMBL document CHEMBL3244089, “Structure-activity studies on hallucinogenic amphetamines using molecular connectivity” (1977).
# Organism: Homo sapiens
# Assay: Hallucinogenic activity in human relative to mescaline
# Assay type: functional
row,SMILES,Ratio
1,COc1ccc(CCN)cc1,1
2,COc1c(CCN)ccc2c1OCO2,5
3,COc1c(CC(C)N)ccc2c1OCO2 (stereo not given),1
4,COc1ccc(CCN)cc1OC,0.2
5,COc1ccc(CC(C)N)cc1OC (stereo not given),2
6,COc1ccc(CC(C)N)c(OC)c1OC (stereo not given),2
7,CCOc1cc(CC(C)N)c(OC)cc1OC (stereo not given),7
8,CCOc1cc2c(cc1CC(C)N)OCO2 (stereo not given),7
9,COc1cc(CCN)c2c(c1)OCO2,1
10,COc1cc(OC)c(OC)cc1CCN,1
11,CN(C)CCc1c[nH]c2cc(O)ccc12,25
12,CN(C)CCc1c[nH]c2cccc(O)c12 [PSILOCIN],32

# Organism: Homo sapiens
# Assay: Hallucinogenic activity in human
# Assay type: functional
row,SMILES,log(activity)
1,COc1cc(CC(C)N)c(OC)c(OC)c1 (stereo not given),0.63
2,COc1cc2c(cc1CC(C)N)OCO2 (stereo not given),1.08
3,COc1cc(CC(C)N)c(OC)c(OC)c1OC (stereo not given),0.86
4,COc1ccc(OC)c(OC)c1CC(C)N (stereo not given),1.14
5,COc1cc(CC(C)N)c(OC)c2c1OCO2 (stereo not given),1.13
6,COc1cc(CC(C)N)cc2c1OCO2 (stereo not given),0.43
7,COc1c(CC(C)N)ccc2c1OCO2 (stereo not given),1
8,COc1ccc(CC(C)N)c2c1OCO2 (stereo not given),0.48
9,CCCCCc1cc(OC)c(CC(C)N)cc1OC (stereo not given),1.09
10,COc1ccc(CC(C)N)c(OC)c1 (stereo not given),0.67
11,COc1cc(CC(C)N)cc(OC)c1OC (stereo not given),0.37
12,COc1cc(OC)c(CC(C)N)c(OC)c1 (stereo not given),1.03
13,COc1c(CC(C)N)cc2c(c1OC)OCO2 (stereo not given),0.75
14,CCCCc1cc(OC)c(CC(C)N)cc1OC (stereo not given),1.63
15,CCc1cc(OC)c(CC(C)N)cc1OC (stereo not given),2.01
16,CCOc1cc(OC)c(CC(C)N)cc1OC (stereo not given),1.22
17,COc1cc(OC)c(OC)cc1CC(C)N (stereo not given),1.26
18,CCCc1cc(OC)c(CC(C)N)cc1OC (stereo not given),1.94
19,COc1ccc(OC)c(CC(C)N)c1 (stereo not given),0.87
20,COc1cc(CC(C)N)c(OC)cc1Br (stereo not given) [BROLAMFETAMINE],2.71
21,COc1cc(CC(C)N)c(OC)cc1C (stereo not given) [DOM],1.89
22,COc1ccc(CC(C)N)cc1 (stereo not given) [PARA-METHOXYAMPHETAMINE],0.59
23,CC(N)Cc1ccc2c(c1)OCO2 (stereo not given) [TENAMFETAMINE],0.41
